This note sets out measurements from patent EP0891764B1, “Ethanolic solutions of N-pentadecanoylisoleucine and use thereof in cosmetics” (KASHIMA OIL COMPANY, priority 1997, dated 1999).

Data set [1] relates to male mice aged 8 weeks of C3H series. Nature of the data set: Hair growth (retrichogenous) test on depilated backs of mice, visual observation versus ethanol only. The class given is in vivo. Details: key: ⓞ: rapid and excellent retrichogenous action; ○: rapid and good retrichogenous action; Δ: slow and slight retrichogenous action. As to conditions: 1% by weight in ethanol, 0.1 mℓ applied to depilated back once a day over 3 weeks; visual comparison with ethanol only. The text has this:
The results are given also in Table 1. […] Table 1

A short description of data set [2]: Solubility in 70% ethanol at 10°C.
Method: A group of eight male mice aged 8 weeks of C3H series with a body weight of 18 to 24g was subjected to depilation at a back portion thereof in a size of about 2× 3.5 cm. Then, each of the N-acylamino acid compounds as shown in Table 1 was dissolved in ethanol to a concentration of 1% by weight as a sample to be tested. Then 0.1 mℓ of the sample were applied to the depilated back portions of the mice once a day over a period of 3 weeks to visually observe the hair growth state. An evaluation was made of the hair growth effect by visually observing the state of trichogenous promotion in comparison with the back portions coated only with ethanol on the basis of the criterion in Table 1.

On to `CCCCCCCCCCCCCCC(=O)N[C@H](C(=O)O)C(C)C` [Comp. Example 4, N-PDNY-L-valine], for which, in data set [1], the Retrichogenous effect result is “ⓞ”. The “Solubility (w/w %)” value in data set [2] worked out at 2.5 w/w %.

For the compound `CCCCCCCCCCCCCCC(=O)N[C@@H](Cc1ccc(O)cc1)C(=O)O` [Comp. Example 6, N-PDNY-L-tyrosine], the Retrichogenous effect result in data set [1] was “ⓞ”. Further, the “Solubility (w/w %)” value in data set [2] is reported as 0.7 w/w %. On to `CCCCCCCCCCCCCCC(=O)N[C@@H](CC(=O)O)C(=O)O` [Comp. Example 7, N-PDNY-L-asparatic acid], for which the Retrichogenous effect entry in data set [1] is reported as “○”. In addition, in data set [2], the “Solubility (w/w %)” value worked out at 0.3 w/w %. On the same counts, the results for `CCCCCCCCCCCCCCC(=O)N[C@@H](C)C(=O)O` [Comp. Example 1, N-PDNY-L-alanine] are “ⓞ” and 0.8 w/w %. On the same counts, the results for `CCCCCCCCCCCCCCC(=O)N[C@@H](Cc1ccccc1)C(=O)O` [Comp. Example 5, N-PDNY-L-phenyl-alanine] are “ⓞ” and 3.7 w/w %. For `CCCCCCCCCCCCCCC(=O)N[C@H](C(=O)O)[C@@H](C)CC` [Example 1, N-pentadecanoyl-L-isoleucine], the Retrichogenous effect entry in data set [1] is recorded as “ⓞ”. For the same compound, the “Solubility (w/w %)” value in data set [2] is on record as 4.0 w/w %. On the same counts, the results for `CCCCCCCCCCCCCCC(=O)N[C@@H](CC(C)C)C(=O)O` [Comp. Example 2, N-PDNY-L-leucine] are “ⓞ” and 2.1 w/w %. In the case of `CCCCCCCCCCCCCCC(=O)N[C@@H](CCSC)C(=O)O` [Comp. Example 3, N-PDNY-L-methionine], the Retrichogenous effect result in data set [1] was “ⓞ”.
